Reference: patent publication US8759365B2, “Organic compounds” (Novartis AG, priority 2007, dated 2014)

Molecular target: rhCETP (Homo sapiens (Human), UniProt P11597)
Experiment: CETP in vitro assay (CETP Activity Kit, fluorescence, rhCETP)
Format: biochemical
Conditions: CETP inhibition; Table 1 does not name the assay; read-out: IC50 (nM), Inhibitory Activity of Compounds
Method: CETP Activity Kit (#RB-RPAK) was purchased from Roar Biochemical, Inc. (New York, N.Y., USA). To each well of a 96-well NBS half-area plate (costar #3686), […] of the donor solution, 1 μL of the acceptor solution and 5 μL compound solution diluted in 100% DMSO were added in a 38 μL of buffer containing 10 mM Tris, 150 mM NaCl and 2 mM EDTA, pH 7.4. Then, the plate was sealed with Themowell™ Sealers (costar #6524) and followed by a mixing on a plate shaker by MICROPLATE MIXER MPX-96 (IWAKI) at power 3 for 10 sec at room temperature. After 10-min incubation at 37° C., the reaction was started by adding 5 μL of rhCETP solution (Cardiovascular Target, New York, N.Y., USA) and mixed on the plate shaker for 10 sec, then the fluorescence intensity at 0 min was measured by a ARVO SX (Perkin Elmerr, USA) at excitation wavelength of 465 nm and emission wavelength of 535 nm. After 120 min-incubation at 37° C., fluorescence intensity was measured again. The inhibition of rhCETP activity by a compound was calculated by the following calculation. Inhibition %={1−(F120−F0)/(f120−f0)}×100 F: measured fluorescence intensity with compound at 0 or 120 min. f: measured fluorescence intensity of without compound at 0 or 120 min.
The IC50 values are determined from the dose-effect curve by Origin software. IC50 values, especially from about 0.1 nM to about 50 μM, are determined for the compounds of the present invention or a pharmaceutically acceptable salt thereof.

Sequence of rhCETP (P11597 18-493): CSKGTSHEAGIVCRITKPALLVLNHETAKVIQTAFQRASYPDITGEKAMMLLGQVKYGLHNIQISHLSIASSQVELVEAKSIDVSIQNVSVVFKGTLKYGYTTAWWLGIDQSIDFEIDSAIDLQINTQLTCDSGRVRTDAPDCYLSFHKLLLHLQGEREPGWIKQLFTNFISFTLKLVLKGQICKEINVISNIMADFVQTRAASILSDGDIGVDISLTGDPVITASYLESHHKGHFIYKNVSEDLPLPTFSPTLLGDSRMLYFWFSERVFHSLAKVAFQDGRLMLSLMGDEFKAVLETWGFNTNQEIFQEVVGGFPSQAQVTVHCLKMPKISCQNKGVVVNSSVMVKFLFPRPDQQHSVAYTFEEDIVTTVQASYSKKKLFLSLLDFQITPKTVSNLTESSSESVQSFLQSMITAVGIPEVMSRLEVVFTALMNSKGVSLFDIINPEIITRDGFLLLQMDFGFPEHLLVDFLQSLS

SMILES | IC50 [nM]
CC[C@@H]1C[C@H](N(Cc2cc(C(F)(F)F)cc(C(F)(F)F)c2)c2ncc(-c3cnn(C)c3)cn2)CN1C(=O)C1CCCCC1 [Example 5-3, ((2R,4S)-4-{(3,5-Bis-trifluoromethyl-benzyl)-[5-(1-methyl-1H-pyrazol-4-yl)-pyrimidin-2-yl]-amino}-2-ethyl-pyrrolidin-1-yl)-cyclohexyl-methanone] | 92
CC[C@@H]1C[C@H](N(Cc2cc(C(F)(F)F)cc(C(F)(F)F)c2)c2ncc(-c3cnn(C)c3)cn2)CN1C(=O)OCC(C)C [Example 6-1, (2R,4S)-4-{(3,5-Bis-trifluoromethyl-benzyl)-[5-(1-methyl-1H-pyrazol-4-yl)-pyrimidin-2-yl]-amino}-2-ethyl-pyrrolidine-1-carboxylic acid isobutyl ester] | 69
CC[C@@H]1C[C@H](N(Cc2cc(C(F)(F)F)cc(C(F)(F)F)c2)c2ncc(-c3cnn(C)c3)cn2)CN1C(=O)OCC(C)(C)C [Example 6-2, (2R,4S)-4-{(3,5-Bis-trifluoromethyl-benzyl)-[5-(1-methyl-1H-pyrazol-4-yl)-pyrimidin-2-yl]-amino}-2-ethyl-pyrrolidine-1-carboxylic acid 2,2-dimethyl-propyl ester] | 47
CC[C@@H]1C[C@H](N(Cc2cc(C(F)(F)F)cc(C(F)(F)F)c2)c2ncc(-c3cnn(C)c3)cn2)CN1C(=O)OC1CCOCC1 [Example 7-4, (2R,4S)-4-{(3,5-Bis-trifluoromethyl-benzyl)-[5-(1-methyl-1H-pyrazol-4-yl)-pyrimidin-2-yl]-amino}-2-ethyl-pyrrolidine-1-carboxylic acid tetrahydro-pyran-4-yl ester] | 60
CC[C@@H]1C[C@H](N(Cc2cc(C(F)(F)F)cc(C(F)(F)F)c2)c2ncc(-c3cnn(C)c3)cn2)CN1C(=O)OCC1CCOCC1 [Example 7-6, (2R,4S)-4-{(3,5-Bis-trifluoromethyl-benzyl)-[5-(1-methyl-1H-pyrazol-4-yl)-pyrimidin-2-yl]-amino}-2-ethyl-pyrrolidine-1-carboxylic acid tetrahydro-pyran-4-ylmethyl ester] | 46
CCC(CC)OC(=O)N1C[C@@H](N(Cc2cc(C(F)(F)F)cc(C(F)(F)F)c2)c2ncc(-c3cnn(C)c3)cn2)C[C@H]1CC [Example 9-1, (2R,4S)-4-{(3,5-Bis-trifluoromethyl-benzyl)-[5-(1-methyl-1H-pyrazol-4-yl)-pyrimidin-2-yl]-amino}-2-ethyl-pyrrolidine-1-carboxylic acid 1-ethyl-propyl ester] | 41
CC[C@@H]1C[C@H](N(Cc2cc(C(F)(F)F)cc(C(F)(F)F)c2)c2ncc(-c3cnn(C)c3)cn2)CN1C(=O)OCC(F)(F)F [Example 9-2, (2R,4S)-4-{(3,5-Bis-trifluoromethyl-benzyl)-[5-(1-methyl-1H-pyrazol-4-yl)-pyrimidin-2-yl]-amino}-2-ethyl-pyrrolidine-1-carboxylic acid 2,2,2-trifluoro-ethyl ester] | 59
CC[C@@H]1C[C@H](N(Cc2cc(C(F)(F)F)cc(C(F)(F)F)c2)c2ncc(-c3cnn(C)c3)cn2)CN1C(=O)OC1CCCC1 [Example 9-3, (2R,4S)-4-{(3,5-Bis-trifluoromethyl-benzyl)-[5-(1-methyl-1H-pyrazol-4-yl)-pyrimidin-2-yl]-amino}-2-ethyl-pyrrolidine-1-carboxylic acid cyclopentyl ester] | 70
CC[C@@H]1C[C@H](N(Cc2cc(C(F)(F)F)cc(C(F)(F)F)c2)c2ncc(-c3cnn(C)c3)cn2)CN1C(=O)O[C@H](C)CC [Example 9-4, (2R,4S)-4-{(3,5-Bis-trifluoromethyl-benzyl)-[5-(1-methyl-1H-pyrazol-4-yl)-pyrimidin-2-yl]-amino}-2-ethyl-pyrrolidine-1-carboxylic acid (R)-sec-butyl ester] | 21
CC[C@@H]1C[C@H](N(Cc2cc(C(F)(F)F)cc(C(F)(F)F)c2)c2ncc(-c3cnn(C)c3)cn2)CN1C(=O)O[C@@H](C)CC [Example 9-5, (2R,4S)-4-{(3,5-Bis-trifluoromethyl-benzyl)-[5-(1-methyl-1H-pyrazol-4-yl)-pyrimidin-2-yl]-amino}-2-ethyl-pyrrolidine-1-carboxylic acid (S)-sec-butyl ester] | 54
CC[C@@H]1C[C@H](N(Cc2cc(C(F)(F)F)cc(C(F)(F)F)c2)c2ncc(-c3cnn(C)c3)cn2)CN1C(=O)OCC1(CC)COC1 [Example 9-6, (2R,4S)-4-{(3,5-Bis-trifluoromethyl-benzyl)-[5-(1-methyl-1H-pyrazol-4-yl)-pyrimidin-2-yl]-amino}-2-ethyl-pyrrolidine-1-carboxylic acid 3-ethyl-oxetan-3-ylmethyl ester] | 70
CC[C@@H]1C[C@H](N(Cc2cc(C(F)(F)F)cc(C(F)(F)F)c2)c2ncc(N3CC[C@H](O)C3)cn2)CN1C(=O)OC(C)C [Example 11, (2R,4S)-4-{(3,5-Bis-trifluoromethyl-benzyl)-[5-((S)-3-hydroxy-pyrrolidin-1-yl)-pyrimidin-2-yl]-amino}-2-ethyl-pyrrolidine-1-carboxylic acid isopropyl ester] | 72
CC[C@@H]1C[C@H](N(Cc2cc(C(F)(F)F)cc(C(F)(F)F)c2)c2ncc(-c3cn[nH]c3)cn2)CN1C(=O)OC(C)C [Example 14, (2R,4S)-4-{(3,5-Bis-trifluoromethyl-benzyl)-[5-(1H-pyrazol-4-yl)-pyrimidin-2-yl]-amino}-2-ethyl-pyrrolidine-1-carboxylic acid isopropyl ester] | 34
CC[C@@H]1C[C@H](N(Cc2cc(C(F)(F)F)cc(C(F)(F)F)c2)c2ncc(-c3cnn(C)c3)cn2)CN1C(=O)N1CCCC1 [Example 16, ((2R,4S)-4-{(3,5-Bis-trifluoromethyl-benzyl)-[5-(1-methyl-1H-pyrazol-4-yl)-pyrimidin-2-yl]-amino}-2-ethyl-pyrrolidin-1-yl)-pyrrolidin-1-yl-methanone] | 39
CC[C@@H]1C[C@H](N(Cc2cc(C(F)(F)F)cc(C(F)(F)F)c2)c2ncc(-c3cnn(C)c3)cn2)CN1C(=O)N1CCCCC1 [Example 16-2, ((2R,4S)-4-{(3,5-Bis-trifluoromethyl-benzyl)-[5-(1-methyl-1H-pyrazol-4-yl)-pyrimidin-2-yl]-amino}-2-ethyl-pyrrolidin-1-yl)-piperidin-1-yl-methanone] | 25
CC[C@@H]1C[C@H](N(Cc2cc(C(F)(F)F)cc(C(F)(F)F)c2)c2ncc(-c3cnn(C)c3)cn2)CN1C(=O)N1CCOCC1 [Example 17, ((2R,4S)-4-{(3,5-Bis-trifluoromethyl-benzyl)-[5-(1-methyl-1H-pyrazol-4-yl)-pyrimidin-2-yl]-amino}-2-ethyl-pyrrolidin-1-yl)-morpholin-4-yl-methanone] | 32
CC[C@@H]1C[C@H](N(Cc2cc(C(F)(F)F)cc(C(F)(F)F)c2)c2ncc(-c3cnn(C)c3)cn2)CN1C(=O)N(C)C [Example 18, (2R,4S)-4-{(3,5-Bis-trifluoromethyl-benzyl)-[5-(1-methyl-1H-pyrazol-4-yl)-pyrimidin-2-yl]-amino}-2-ethyl-pyrrolidine-1-carboxylic acid dimethylamide] | 63
CC[C@@H]1C[C@H](N(Cc2cc(C(F)(F)F)cc(C(F)(F)F)c2)c2ncc(N3CC[C@H](O)C3)cn2)CN1c1nc(N2CCC(O)CC2)ncc1Cl [Example 23-6] | 110
CC[C@@H]1C[C@H](N(Cc2cc(C(F)(F)F)cc(C(F)(F)F)c2)c2ncc(-c3cnn(C)c3)cn2)CN1c1nc(N2CCC(O)CC2)ncc1Cl [Example 23-10] | 30
